Experimental data as given in patent US4182889A, “Process for preparing 10-methyl-2,9-dioxatricyclo[4,3,1,0^3,7 ] decanes” (Kali-Chemie Pharma GmbH, priority 1977, dated 1980).
Where a name gives a salt, the structure may show the parent alone.

What was measured:
[1] = hexobarbital induced sleep prolongation in mice; type: in vivo; conditions: white mice; oral dosages starting at 10 mg/kg; dose dependent
Procedure: For example, they effect a significant increase of the duration of hexobarbital induced sleep in mice upon oral administration of from 1 to 100 mg/kg body weight. Electroencephalographical tests in rats show an increase of the classical and the paradoxical sleep phases upon oral administration of from 1 to 100 mg/kg body weight.
(§1) The hydrochloride of formula II, test substance number 1973, and the hydrogentartrate of formula II, test substance number 2961, have been used for pharmacological testing.

[2] = anticonvulsive activity in the screening in white mice; type: in vivo; conditions: oral dosages starting at 10 mg/kg
Description: as §1

toxicity in mice (LD50) = conditions: mouse, in vivo

COC1OC2OC3(CN4CCCCC4)C(O)CC(C2C)C13 (stereo not drawn) [test substance number 2961, 3-piperidinomethyl-4β-hydroxy-8-methoxy-10β-methyl-2,9-dioxatricyclo-[4,3,1,0^3,7] decane hydrogentartrate]
increase of the duration of hexobarbital induced sleep [1]: remarkable increase | anticonvulsive activity [2]: do not exhibit any anticonvulsive activity

COC1OC2OC3(CN4CCCCC4)C(O)CC(C2C)C13 (stereo not drawn) [test substance number 1973, 3-piperidinomethyl-4β-hydroxy-8-methoxy-10β-methyl-2,9-dioxatricyclo[4,3,1,0^3,7] decane hydrochloride]
LD50 (toxicity in mice (LD50); ip): 406 mg/kg | LD50 (toxicity in mice (LD50); po): 1140 mg/kg | increase of the duration of hexobarbital induced sleep [1]: remarkable increase | anticonvulsive activity [2]: do not exhibit any anticonvulsive activity
